Target: T1, HA-CaSR WT + myc CaSR-WT (Rattus norvegicus, UniProt P48442)
T1 construct: mGluR5 signal peptide (N); expressed in transfected cells; host or cells: HEK293T
T1 sequence (P48442 20-1079) 1: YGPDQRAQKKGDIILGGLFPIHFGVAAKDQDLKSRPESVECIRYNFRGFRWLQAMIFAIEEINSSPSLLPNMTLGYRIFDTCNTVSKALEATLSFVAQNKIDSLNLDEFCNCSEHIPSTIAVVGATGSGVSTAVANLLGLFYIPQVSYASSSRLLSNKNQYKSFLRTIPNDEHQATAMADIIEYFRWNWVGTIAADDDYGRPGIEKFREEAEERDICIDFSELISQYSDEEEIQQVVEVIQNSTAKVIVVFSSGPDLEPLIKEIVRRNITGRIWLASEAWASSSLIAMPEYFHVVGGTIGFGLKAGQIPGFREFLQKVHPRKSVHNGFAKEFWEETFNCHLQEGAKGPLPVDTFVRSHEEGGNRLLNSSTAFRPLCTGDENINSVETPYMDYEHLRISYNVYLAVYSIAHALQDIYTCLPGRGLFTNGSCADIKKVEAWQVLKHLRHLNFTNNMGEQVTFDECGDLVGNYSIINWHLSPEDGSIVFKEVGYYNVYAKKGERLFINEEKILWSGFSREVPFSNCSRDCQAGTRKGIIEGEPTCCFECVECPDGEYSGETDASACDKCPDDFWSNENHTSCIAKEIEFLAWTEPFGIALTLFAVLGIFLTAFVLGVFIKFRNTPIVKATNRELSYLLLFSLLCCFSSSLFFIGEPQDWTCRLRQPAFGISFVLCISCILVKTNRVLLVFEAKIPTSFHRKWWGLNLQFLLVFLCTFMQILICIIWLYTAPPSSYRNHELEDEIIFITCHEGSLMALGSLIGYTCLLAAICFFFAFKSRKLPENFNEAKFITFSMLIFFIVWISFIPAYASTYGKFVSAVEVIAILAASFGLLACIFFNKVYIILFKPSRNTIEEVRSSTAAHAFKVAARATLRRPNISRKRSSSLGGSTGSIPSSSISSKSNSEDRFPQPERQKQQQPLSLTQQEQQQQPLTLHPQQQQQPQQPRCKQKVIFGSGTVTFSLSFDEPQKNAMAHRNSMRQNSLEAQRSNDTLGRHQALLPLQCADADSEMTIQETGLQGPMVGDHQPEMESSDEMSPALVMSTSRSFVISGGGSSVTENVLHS
T1 sequence (P48442 20-1079) 2: T1 sequence (P48442 20-1079) 1
Assay: IP-One assay, co-expression 1:1 in HEK293T
Type: cell-based
Procedure: Human embryonic kidney (HEK) 293T cells were cultured in DMEM supplemented with 10% dFBS and 1% P/S at 37 °C and 5% CO2. 48 h prior to assay, transient transfection was performed using Lipofectamine 2000 as the transfection reagent. White opaque 96-well culture plates (PerkinElmer, Waltham, MA, USA) were used for the ELISA and the TR-FRET dimerization assay, while clear tissue culture treated 96-well plates (Corning, Corning, NY, USA) were used for the IP-One assay. Both plate types were coated with poly-D-lysine before addition of cells and transfection mix. 0.25 μl/well of Lipofectamine 2000 were diluted in 25 μl/well of Opti-MEM and incubated at room temperature (RT) for 5 min. 0.03 μg/well of DNA was diluted in 25 μl/well of Opti-MEM, and subsequently mixed with the Lipofectamine 2000 dilution and incubated 20 min at RT before addition to the plates. Cell suspensions of 170.000 HEK293T cells/mL were prepared in complete growth medium and 100 μl/well (17.000 cells/well) was added to the plates, which were incubated for 48 h at 37 °C and 5% CO2 before performing assays.
Functional activity was measured using the IP-One assay, which is an IP1 accumulation assay. For agonist testing, ligands were prepared in final concentrations in ligand buffer (HBSS, 20 mM HEPES, pH 7.4 supplemented with 20 mM LiCl). Cells were washed once with 100 μl/well of assay buffer (HBSS, 20 mM HEPES, pH 7.4) and 50 μl/well of agonist solution was added after which plates were incubated at 37 °C for 30 min. Subsequently, ligand solutions were removed and cells were washed with 100 μl/well of assay buffer. Cell lysis was performed by addition of 30 μl/well of IP-One Conjugate & Lysis Buffer (Cisbio Bioassays, Codolet, France) and plates were incubated at RT for 30 min. Afterwards, 30 μl/well of assay buffer was added to dilute the cell lysate. 10 μl/well of cell lysate was transferred from the 96-well plate to a 384-well Optiplate and 10 μl/well of detection solution (Assay buffer + 2.5% of anti-IP1 antibody cryptate Terbium conjugate + 2.5% IP1-d2 conjugate (Cisbio Bioassays, Codolet, France)) was also added. The 384-well plate was incubated for 1 h at RT in dark before being measured on an EnVision plate reader (PerkinElmer, Waltham, MA, USA). Upon excitation at 340 nm, emission at 615 nm and 665 nm was measured, and the FRET ratio (665 nm/615 nm) was converted to IP1 concentrations by interpolating values from an IP1 standard curve generated from a provided IP1 calibrator (Cisbio Bioassays, Codolet, France). When testing allosteric modulators, cells were pre-incubated for 30 min at 37 °C with 50 μl/well of ligand buffer supplemented with allosteric modulator and a final concentration of 1% DMSO. […]

## [Ca+2] [Ca^2+]
Ca^2+ alone
  EC50: 2.98 mM
  Hill coefficient ± S.E.M.: 4.24 ± 0.19
  pEC50 ± S.E.M.: 2.53 ± 0.02
Normalized to maximum response of WT CaSR
  Max ± S.E.M.: 100%
